By logD is commonly meant lipophilicity at a set pH, counting ionised and neutral species. Higher therefore signals a more lipophilic compound. One may read the half-life as how long it takes for the measured level to halve. A higher half-life goes with slow loss. Broadly, the bioavailability is dose-corrected exposure relative to a reference, in per cent. Higher therefore signals much systemic uptake.

The results in this text go back to ChEMBL document CHEMBL1772993, “Design and synthesis of novel N-hydroxy-dihydronaphthyridinones as potent and orally bioavailable HIV-1 integrase inhibitors” (J Med Chem, 2011).

A short description of the first data set: Octanol-buffer distribution coefficient, log D of the compound at pH 7.4.
Conditions: not given
The data set is classed as physicochemical.
Consider `CN(O)C(=O)c1cc2c(CN3CCC[C@H]3C(N)=O)cn(Cc3ccc(F)cc3)c2cn1`, for which the logD is 1.7.

`O=C1c2ncc3c(ccn3Cc3ccc(F)cc3)c2CCN1O` came in with a logD of 1.39.

In turn, `O=C1c2ncc3c(ccn3Cc3ccc(F)cn3)c2CCN1O` had a logD of 0.6.

`O=C1c2ncc3c(ccn3Cc3ncc(F)cc3F)c2CCN1O` came in with a logD of 0.77.

The compound `N#Cc1cc(F)ccc1Cn1ccc2c3c(ncc21)C(=O)N(O)CC3` yielded a log distribution coefficient (logD) of 1.15.

Consider `N#Cc1c(Cn2ccc3c4c(ncc32)C(=O)N(O)CC4)ccc(F)c1Cl`, for which the logD was found to be 1.7.

On to `CN(C)Cc1cn(Cc2ccc(F)cc2)c2cnc3c(c12)CCN(O)C3=O`, for which the log distribution coefficient (logD) is 0.89.

`CN(CCO)Cc1cn(Cc2ccc(F)cc2)c2cnc3c(c12)CCN(O)C3=O` yielded a logD of 0.67.

`O=C1c2ncc3c(c(CN4CCCCC4)cn3Cc3ccc(F)cc3)c2CCN1O` yielded a logD of 1.15.

`COCCN(C)Cc1cn(Cc2ccc(F)cc2)c2cnc3c(c12)CCN(O)C3=O` showed a log distribution coefficient (logD) of 1.46.

`CN(Cc1cn(Cc2ccc(F)cc2)c2cnc3c(c12)CCN(O)C3=O)CC1CC1`: the logD amounted to 1.52.

Turning to `O=C1c2ncc3c(c(CN4CCC(F)(F)C4)cn3Cc3ccc(F)cc3)c2CCN1O`, the log distribution coefficient (logD) was found to be 2.02.

`O=C1c2ncc3c(c(COCCc4ccccn4)cn3Cc3ccc(F)cc3)c2CCN1O` displayed a logD of 1.56.

Regarding `O=C1c2ncc3c(c(COCc4ccccn4)cn3Cc3ccc(F)cc3)c2CCN1O`, the pH-dependent lipophilicity (logD) was 1.63.

Compound `O=C1c2ncc3c(c(COCC4CCOCC4)cn3Cc3ccc(F)cc3)c2CCN1O` registered a log distribution coefficient (logD) of 1.83.

Turning to `CC(C)OCCOCc1cn(Cc2ccc(F)cc2)c2cnc3c(c12)CCN(O)C3=O`, the log distribution coefficient (logD) was 2.12.

With `O=C1c2ncc3c(c(COCCCc4ccccn4)cn3Cc3ccc(F)cc3)c2CCN1O`, the logD turned out to be 2.15.

Turning to `O=C1c2ncc3c(c(COCc4ccccc4F)cn3Cc3ccc(F)cc3)c2CCN1O`, the log distribution coefficient (logD) worked out at 2.47.

The compound `O=C(O)CCc1cn(Cc2ccc(F)cc2)c2cnc3c(c12)CCN(O)C3=O` displayed a log distribution coefficient (logD) of -0.74.

With `O=C1c2ncc3c(c(CCCN4CCOCC4)cn3Cc3ccc(F)cc3)c2CCN1O`, the pH-dependent lipophilicity (logD) worked out at 0.1.

Consider `CC(=O)N(C)CCCc1cn(Cc2ccc(F)cc2)c2cnc3c(c12)CCN(O)C3=O`, for which the pH-dependent lipophilicity (logD) amounted to 0.76.

In turn, `CC(C)(O)CCc1cn(Cc2ccc(F)cc2)c2cnc3c(c12)CCN(O)C3=O` registered a logD of 1.67.

`O=C1c2ncc3c(c(CCCOC4CCOCC4)cn3Cc3ccc(F)cc3)c2CCN1O` yielded a logD of 2.1.

Regarding `O=C1c2ncc3c(c(CCC(F)(F)F)cn3Cc3ccc(F)cc3)c2CCN1O`, the log distribution coefficient (logD) was determined as 2.32.

The compound `O=C1c2ncc3c(c(S(=O)(=O)N4CCOCC4)cn3Cc3ccc(F)cc3)c2CCN1O` registered a logD of 0.18.

For the compound `COCCN(C)S(=O)(=O)c1cn(Cc2ccc(F)cc2)c2cnc3c(c12)CCN(O)C3=O`, the logD was determined as 1.14.

With `CN(C)S(=O)(=O)c1cn(Cc2ccc(F)cc2)c2cnc3c(c12)CCN(O)C3=O`, the pH-dependent lipophilicity (logD) amounted to 1.29.

As to `O=C1c2ncc3c(c(S(=O)(=O)N4CCCC4)cn3Cc3ccc(F)cc3)c2CCN1O`, the log distribution coefficient (logD) came out at 1.63.

Take `CC1CCN(S(=O)(=O)c2cn(Cc3ccc(F)cc3)c3cnc4c(c23)CCN(O)C4=O)CC1`: the log distribution coefficient (logD) is 2.14.

Compound `CN(O)C(=O)c1cc2ccn(Cc3ccc(F)cc3)c2cn1` yielded a logD of 2.04.

A short description of another data set: Volume of distribution at steady state in dog at 1 mg/kg, iv and 4.2 mg/kg, po. Type of data set: ADME, organism-based, Canis lupus familiaris. The conditions noted are these: in vivo, read-out: Vdss.
On to `O=C1c2ncc3c(c(CN4CCCCC4)cn3Cc3ccc(F)cc3)c2CCN1O`, for which the Vd is 6.7 L/kg.

The next data set in a line: Half life in dog at 1 mg/kg, iv and 4.2 mg/kg, po. Type of data set: ADME, organism-based, Canis lupus familiaris. The settings on record: in vivo.
Compound `O=C1c2ncc3c(c(CN4CCCCC4)cn3Cc3ccc(F)cc3)c2CCN1O` gave a half-life of 2.6 h.

The nature of the next data set: Oral bioavailability in dog at 4.2 mg/kg. The conditions noted are these: in vivo. Type of data set: ADME, organism-based, Canis lupus familiaris.
Turning to `O=C1c2ncc3c(c(CN4CCCCC4)cn3Cc3ccc(F)cc3)c2CCN1O`, the bioavailability was 33%.

The nature of a further data set: Clearance in dog at 1 mg/kg, iv and 4.2 mg/kg, po. Type of data set: ADME, organism-based, Canis lupus familiaris. The settings on record: in vivo.
In turn, `O=C1c2ncc3c(c(CN4CCCCC4)cn3Cc3ccc(F)cc3)c2CCN1O` came in with a clearance of 30 mL/min/kg.

A short description of a further data set: Clearance in dog. The data set is classed as ADME, organism-based, Canis lupus familiaris. The conditions noted are these: in vivo.
On to `CN(O)C(=O)c1cc2c(CN3CCC[C@H]3C(N)=O)cn(Cc3ccc(F)cc3)c2cn1`, for which the clearance worked out at 15 mL/min/kg.
